According to patent EP0423524A2, “Propiophenone derivatives and their preparation and pharmaceutical use” (MARUHO Co., Ltd., priority 1989, dated 1991):
Counter-ions that a name gives are not always drawn.

Columns and labels:
Assay type in all cases: in vivo
Male Slc-ddy mice [1] = assay: Inhibitory effect on the motor coordination (rotating rod test); settings: oral, rotating rod 30 min after administration, falling off within 60 s counted as positive, 95% confidence limit in brackets
Protocol: Male Slc-ddy mice of 20 - 25 g (5 weeks old) were used in groups of 7 - 10. The test compounds were used dissolved or suspended in 0.5 % CMC or 0.5 % Tween 80 solution. Each test compound (300 - 600 mg/10 ml/kg) was orally administered to the mice, and after 30 min the mice were put on a 3-cm diameter rod rotating at a speed of 10 min⁻¹ in a direction opposite to the rotation direction, and the time of staying on it was measured to a maximum of 180 s. Those falling off of the rotating rod within 60 s were judged as having an inhibitory effect on the motor coordination and, with the number of cases as index, comparison was made with the reference compound (eperisone hydrochloride).
The mice were trained in advance to be able to stay on the rotating rod for more than 300 s, and those capable of staying on it for more than 250 s immediately before testing were used.

Male Slc-ddy mice [2] = assay: Anti-nicotinic effect (survival after intravenous nicotine bitartrate); settings: Mus musculus, 0.5 h, oral, nicotine bitartrate 3 mg/10 ml/kg i.v. after 30 min, Litchfield-Wilcoxon, 95 % confidence limit in brackets, read-out: ED₅₀ values for the anti-nicotinic effect
Protocol: Experimental Method of Male Slc-ddy mice/30 - 35 g (6 weeks old) were used as test animals in groups of 7 - 10. The test compounds (100 mg/10 ml/kg) were orally administered to the mice, and after 30 min, nicotine bitartrate (3 mg/10 ml/kg) was administered intravenously, and the number of animals killed due to tonic convulsion was counted. The surviving animals were judged as having an anti-nicotinic effect, and with the number thereof as index the comparison concerning the anti-nicotinic effect was made with the reference compound (eperisone hydrochloride).

Male Slc-ddy mice [3] = assay: Anti-strychnine effect (time from tonic convulsions to death after subcutaneous strychnine nitrate); settings: mice, oral, strychnine nitrate 1.5 mg/10 ml/kg s.c. after 30 min; Litchfield-Wilcoxon; 95% confidence limit in brackets
Protocol: Strychnine is known to enhance reflex stimulation, among others, of spinal cord to induce convulsions. If this effect of strychnine can be suppressed by administration of any of the above-mentioned compounds, this compound is expected to have a central muscle relaxation effect.
Male Slc-ddy mice of 25 - 30 g (5 weeks old) were used in groups of 7 - 10.
The test compounds (100 mg/10 ml/kg) were orally administered to the mice, and after 30 min, 1.5 mg/10 ml/kg of strychnine nitrate was administered subcutaneously, and the time was measured from the occurence of tonic convulsions to the death of the animals. Cases in which this time was extended to 6 min or more were judged as corresponding to an anti-strychnine effect, and with the number of such cases as index, comparison was made with the reference compound (eperisone hydrochloride). […] The ED₅₀ values (95% confidence limit) for the anti-strychnine effect were determined by the Litchfield-Wilcoxon method and are shown in Table 3.

Acute toxicity test = settings: mouse, in vivo, po, mice, observation for 7 days, Litchfield-Wilcoxon, 95% confidence limit in brackets, read-out: LD₅₀ values (50% of lethal dose)
Protocol: (§1) Male ddy mice of 20-30 g were used as test animals in groups of 5-10. The test compounds were dissolved or suspended in 0.5 % Tween 80 aqueous solution, and orally administered to the mice. Observation was made for 7 days after administration. The LD₅₀ values (50% of lethal dose) (95% confidence limit) were determined by the Litchfield-Wilconxon method, and are shown in Table 4.

Male ddy mice = assay: Acute toxicity test; settings: oral
Protocol: as §1

| SMILES | ED₅₀ values for the inhibitory effect on the motor coordination (Male Slc-ddy mice [1]) | ED50 (Male Slc-ddy mice [2]) [mg/kg] | ED₅₀ values for the anti-strychnine effect (Male Slc-ddy mice [3]) | LD50 at 168 h (Acute toxicity test) [mg/kg] | minimum lethal dose relative to the minimum amount necessary for developing a pharmacological effect (safety margin) (Male ddy mice) | LD₅₀ values (50% of lethal dose) (Male ddy mice; observation for 7 days, Litchfield-Wilcoxon, 95% confidence limit in brackets, 10080 min) |
| --- | --- | --- | --- | --- | --- | --- |
| CCc1ccc(C(=O)C(C)CN2CCCCC2)cc1 (stereo not drawn) [Eperisone hydrochloride, reference compound] | positive cases not in excess of 50% | 140 | No effect detected | 303 | the minimum lethal dose is close to the minimum amount necessary for developing a pharmacological effect |  |
| CCc1ccc(C(=O)C(C)Cn2ccnc2)cc1 (stereo not drawn) [Hydrochloride of compound 2] |  |  |  |  |  | 225 mg/kg (182-278) |
